US9969761B2, “Stabilisation of radiopharmaceutical precursors” (GE HEALTHCARE LIMITED, priority 2004, dated 2018)
Several values for one entry are separate records, joined by “and”; a condition that tells them apart may be missing. Equal values may be shown once.

Key:
[1] = Comparative example: radiolabelling of stored dry powder mannose triflate, RCP by ITLC; format: physicochemical; conditions: for % RCP: dry powder
Procedure: Dry powder mannose triflate was stored in vials at different temperatures and for different time periods.
A solution of potassium carbonate (41 mg of potassium carbonate in 40 μl water) was added to a glassy carbon reactor and then a solution of kryptofix 222 (19.4 mg in 320 μl) was added separately. Then a solution of 18-fluoride in water (0.05 ml) was added and the solution dried by heating to 80° C. for 4 mins with a flow of dry nitrogen (at 0.3 liters/min). A solution of 1,3,4,6-tetra-O-acetyl-2-O-trifluoromethanesulfonyl-β-D-mannopyranose (20 mg in 1.6 ml dry acetonitrile) was then added and the reaction heated for a further 4 minutes at 80° C. The reaction was then cooled to 50° C. and a sample removed for analysis by ITLC (Instant thin layer chromatography) on TLC aluminium sheets silica gel 60 F254 eluting with 95% acetonitrile, 5% water. The radiochemical purity was calculated from the ratio of 1,3,4,6-tetra-O-acetyl-2-fluoro-β-D-mannopyranose to the total of the sugar and free fluoride (the sole two components from the reaction).

[2] = IR of stored dry powder; format: physicochemical; conditions: 2 weeks storage at 50° C.
[3] = Purity by HPLC-UV after storage; format: physicochemical; conditions: dry powder; 2 weeks storage at 50° C.
Procedure: (§1) Filled and capped units are kept in storage at 25° C. and 50° C. in thermally controlled cabinets for set periods of time at which “pull points” a vial was removed from storage and subjected to the testing outlined below.
(§2) Non-radioactive methods (cold) performed: • Appearance/organoleptic test, all pull points • Purity by HPLC-UV, all pull points • ^19F-NMR, all pull points • Water content analysis, at time zero.
HPLC Method: octadecylsilyl silica gel (5 μm) column (Hichrom Nucleosil 100-5C18), temperature 25° C.; injection volume 20 μl; mobile phase of water: acetonitrile gradient, 1 ml/min. Detection by spectrophotometer at 220 nm.
HPLC-UV traces for the solid mannose triflate control experiment and the acetonitrile solution of mannose triflate are shown in FIGS. 1 and 2 respectively. Mannose triflate elutes at 32.5 minutes.

[4] = dry powder at 5° C.; cited from earlier work
[5] = Appearance/organoleptic test after storage; format: physicochemical; conditions: dry powder; 2 weeks storage at 50° C.
Procedure: as §1, §2

[6] = Radiolabelling with 18F- in a glassy carbon reactor after storage (pFDG RCP), Examples 1 and 2; format: physicochemical; conditions: storage time 0 weeks, MT 20 mg in 1.6 ml acetonitrile
Procedure: as §1
Radioactive methods (hot) performed: Radiolabelling with ^18F^− in a glassy carbon reactor (all pull points). Each dry sample of mannose triflate (20 mg) is dissolved in dry acetonitrile (1.6 ml). For the mannose triflate stored in acetonitrile, an aliquot (3.3 ml) was removed and diluted to 4.0 ml with acetonitrile and 1.6 ml of this solution was used in the radiolabelling test. For the samples taken after 2 weeks storage at 50° C., a 1.6 ml sample of the mannose triflate solution was used directly without further dilution. In all cases, the radiolabelling was performed after drying an ^18F solution of Kryptofix 2.2.2 (19.4 mg), potassium carbonate (41.0 mg), acetonitrile (0.32 ml) and water (0.04 ml) for 4 minutes at 80° C. before adding the test solution of mannose triflate in acetonitrile. The labelling reaction was carried out at 80° C. for 4 minutes in a glassy carbon reactor. […]
Using similar method to Example 1, the stability of mannose triflate in acetonitrile with water at level of approximately 725, 1450, and 2500 ppm was evaluated. […]

% RCP ([1]; 0 days under air, listed as Dry powder mannose triflate): 87% and 86%
% RCP ([1]; 1 day @ room temperature under dry N2, listed as Dry powder mannose triflate): 82% and 93%
% RCP ([1]; 5 days @ 50° C. under air): 5%
% RCP ([1]; 127 days @ 25° C. under air): 1%
stability of dry powder (conclusion from RCP data) ([1]; room temperature, much worse at 50° C.): significant instability
IR identity [2]: no longer mannose triflate
HPLC-UV detection of mannose triflate [3]: no mannose triflate was detected
pFDG RCP % ([6]; listed as Control (N2)): 82% and 93%
pFDG RCP % ([6]; listed as Control (air)): 87% and 86%
Compound: CC(=O)OC[C@H]1O[C@@H](OC(C)=O)[C@@H](OS(=O)(=O)C(F)(F)F)[C@@H](OC(C)=O)[C@@H]1OC(C)=O [mannose triflate, 1,3,4,6-tetra-O-acetyl-2-O-trifluoromethanesulfonyl-β-D-mannopyranose]
shelf life [4]: 6 months
Appearance/organoleptic [5]: black and smelled strongly of acetic acid
